Reference: PubChem BioAssay (NCI)
Several values for one entry are separate records, joined by “and”; a condition that tells them apart may be missing. Equal entries are not always repeated.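 In this assay, cells in 96-well plates receive the compound at five concentrations for 48 hours. Endpoints are linearly interpolated between the surrounding concentrations. At the GI50, growth is halved. The concentration for full growth arrest is given as TGI.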

The compounds below were run on MALME-3M melanoma (assay: DTP human tumour cell line panel, 48 h).

Question: What does the source list for `Cc1cc(C2CCCCC2)n(O)c(=O)c1`?
Answer: GI50: 2660 nM; TGI: > 100 µM and 49.4 µM

Question: For `COC(=O)C(=O)C(C(=O)C=C(C)C)C(=O)C(=O)Nc1ccc(Cl)cc1C` (stereo not given), which TGI is on record?
Answer: > 100 µM

Question: How did the GI50 turn out when `CC(=O)[O][Hg][c]1c(C)c(C)c(C)c(C)c1C` was run?
Answer: 1240 nM

Question: What about the TGI of the same compound?
Answer: 2.62 µM

Question: Which results are given for `COc1cc(C(=O)O[C@H](C(N)=O)[C@]2(C)CO2)c2ccccc2c1`?
Answer: GI50: 16200 nM; TGI: 36.5 µM

Question: How did the TGI turn out when `Cc1cccc(C(C)(C)C)c1NC(=O)CCc1n[nH]c(=S)o1` was run?
Answer: > 100 µM

Question: How did the TGI turn out when `CN(C)C(=S)SN(C)C(=O)Nc1ccccc1` was run?
Answer: 50.3 µM

Question: For `Cc1ccc(C(=O)/C=C/c2ccccc2O)c(C)c1`, which TGI is on record?
Answer: > 100 µM

Question: `O=S(O)CCCCSSCCCCSSCCCCS(=O)O` was tested. Which TGI did it give?
Answer: 84.2 µM

Question: For `COc1cc2c(/C=C3/C(=O)Nc4cccc(Cl)c43)c(Cl)n(Cc3ccccc3)c2cc1C`, which GI50 is on record?
Answer: 14200 nM

Question: What about the TGI of the same compound?
Answer: 41.4 µM

Question: What does the source list for `Cc1[nH]c(N=Nc2ccccc2)nc1N=Nc1ccccc1`?
Answer: GI50: 2270 nM; TGI: 8.06 µM

Question: `COc1ccc(-c2cc3c(nn2)-c2ccccc2C3=O)cc1` was tested. Which GI50 did it give?
Answer: > 100000 nM

Question: What about the TGI of the same compound?
Answer: > 100 µM

Question: Which TGI does the source give for `CC(=O)SCCC1c2[nH]c3ccccc3c2CCN1O` (stereo not given) here?
Answer: > 100 µM

Question: What does the source list for `COc1ccc(S(=O)(=O)N(Cc2ccc3c(n2)C=CC(C)(C)O3)C2CCC2)cc1OC`?
Answer: GI50: < 10 nM; TGI: 0.0209 µM

Question: For `O=C1C2=C(CC3C(C2)C3(Br)Br)C(=O)C2=C1CC1C(C2)C1(Br)Br` (stereo not given), which TGI is on record?
Answer: > 100 µM

Question: `COc1ccc(C2CC(=O)c3c(O)c(OC)c(OC)c(OC)c3O2)c(O)c1` (stereo not given) was tested. Which GI50 did it give?
Answer: 13100 nM

Question: What about the TGI of the same compound?
Answer: 26.7 µM

Question: `CC(=O)c1ccc(NC(=O)/C(Cc2ccccn2)=N/NC(=O)C[N+](C)(C)C)cc1` was tested. Which TGI did it give?
Answer: > 100 µM

Question: What does the source list for `O=C(CCCSc1nc(-c2ccc(Cl)cc2)cc(-c2ccc(Cl)cc2)n1)NO`?
Answer: GI50: 2250 nM; TGI: 11.6 µM

Each compound was assayed on SK-MEL-28 melanoma (assay: DTP human tumour cell line panel, 48 h).

Question: How did the GI50 turn out when `Cc1cc(C2CCCCC2)n(O)c(=O)c1` was run?
Answer: 4.07 µM

Question: What about the TGI of the same compound?
Answer: > 100 µM

Question: How did the TGI turn out when `COC(=O)C(=O)C(C(=O)C=C(C)C)C(=O)C(=O)Nc1ccc(Cl)cc1C` (stereo not given) was run?
Answer: > 100 µM

Question: Which results are given for `CC(=O)[O][Hg][c]1c(C)c(C)c(C)c(C)c1C`?
Answer: GI50: 1.26 µM; TGI: 2.63 µM

Question: How did the GI50 turn out when `COc1cc(C(=O)O[C@H](C(N)=O)[C@]2(C)CO2)c2ccccc2c1` was run?
Answer: 15.6 µM

Question: What about the TGI of the same compound?
Answer: 31.5 µM

Question: Which TGI does the source give for `Cc1cccc(C(C)(C)C)c1NC(=O)CCc1n[nH]c(=S)o1` here?
Answer: > 100 µM

Question: Which TGI does the source give for `CN(C)C(=S)SN(C)C(=O)Nc1ccccc1` here?
Answer: 53.6 µM

Question: How did the TGI turn out when `Cc1ccc(C(=O)/C=C/c2ccccc2O)c(C)c1` was run?
Answer: > 100 µM

Question: `O=S(O)CCCCSSCCCCSSCCCCS(=O)O` was tested. Which TGI did it give?
Answer: > 100 µM

Question: With `COc1cc2c(/C=C3/C(=O)Nc4cccc(Cl)c43)c(Cl)n(Cc3ccccc3)c2cc1C` as the compound, how does the GI50 read?
Answer: 4.98 µM

Question: What about the TGI of the same compound?
Answer: 43.7 µM

Question: What does the source list for `Cc1[nH]c(N=Nc2ccccc2)nc1N=Nc1ccccc1`?
Answer: GI50: 4.5 µM; TGI: > 41 µM

Question: `COc1ccc(-c2cc3c(nn2)-c2ccccc2C3=O)cc1` was tested. Which GI50 did it give?
Answer: > 100 µM

Question: And the TGI?
Answer: > 100 µM

Question: For `CC(=O)SCCC1c2[nH]c3ccccc3c2CCN1O` (stereo not given), which TGI is on record?
Answer: > 100 µM

Question: Which GI50 does the source give for `COc1ccc(S(=O)(=O)N(Cc2ccc3c(n2)C=CC(C)(C)O3)C2CCC2)cc1OC` here?
Answer: < 0.01 µM

Question: And the TGI?
Answer: 0.461 µM

Question: How did the TGI turn out when `O=C1C2=C(CC3C(C2)C3(Br)Br)C(=O)C2=C1CC1C(C2)C1(Br)Br` (stereo not given) was run?
Answer: > 100 µM

Question: Which results are given for `COc1ccc(C2CC(=O)c3c(O)c(OC)c(OC)c(OC)c3O2)c(O)c1` (stereo not given)?
Answer: GI50: 10.5 µM; TGI: 25.6 µM

Question: Which TGI does the source give for `CC(=O)c1ccc(NC(=O)/C(Cc2ccccn2)=N/NC(=O)C[N+](C)(C)C)cc1` here?
Answer: > 100 µM

Question: Which GI50 does the source give for `O=C(CCCSc1nc(-c2ccc(Cl)cc2)cc(-c2ccc(Cl)cc2)n1)NO` here?
Answer: 3.15 µM

Question: And the TGI?
Answer: 17 µM

Each compound was assayed on SF-539 CNS (assay: DTP human tumour cell line panel, 48 h).

Question: What does the source list for `Cc1cc(C2CCCCC2)n(O)c(=O)c1`?
Answer: GI50: 2040 nM; TGI: 80.9 µM and 93.8 µM

Question: With `COC(=O)C(=O)C(C(=O)C=C(C)C)C(=O)C(=O)Nc1ccc(Cl)cc1C` (stereo not given) as the compound, how does the TGI read?
Answer: > 100 µM

Question: With `CC(=O)[O][Hg][c]1c(C)c(C)c(C)c(C)c1C` as the compound, how does the GI50 read?
Answer: 1660 nM

Question: And the TGI?
Answer: 3.25 µM

Question: Which GI50 does the source give for `COc1cc(C(=O)O[C@H](C(N)=O)[C@]2(C)CO2)c2ccccc2c1` here?
Answer: 2410 nM

Question: What about the TGI of the same compound?
Answer: 7.55 µM

Question: How did the TGI turn out when `Cc1cccc(C(C)(C)C)c1NC(=O)CCc1n[nH]c(=S)o1` was run?
Answer: > 100 µM

Question: Which TGI does the source give for `CN(C)C(=S)SN(C)C(=O)Nc1ccccc1` here?
Answer: > 81.1 µM

Question: For `Cc1ccc(C(=O)/C=C/c2ccccc2O)c(C)c1`, which TGI is on record?
Answer: > 100 µM

Question: For `O=S(O)CCCCSSCCCCSSCCCCS(=O)O`, which TGI is on record?
Answer: > 100 µM

Question: With `COc1cc2c(/C=C3/C(=O)Nc4cccc(Cl)c43)c(Cl)n(Cc3ccccc3)c2cc1C` as the compound, how does the GI50 read?
Answer: 3780 nM

Question: And the TGI?
Answer: > 100 µM
